ChEMBL document CHEMBL1201862, “PubChem BioAssay data set” (2004)
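Tested at 5 concentrations; 48 h exposure; 96-well plates; endpoints linearly interpolated, else capped at highest concentration. GI50: concentration for 50% inhibition of growth.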 The source made the active and inactive calls. No stated cut-off is given here; in the data, active = GI50 up to about 1.1 µM and inactive = higher.

Experiments:
Assay in all cases: DTP human tumour cell line panel, 48 h
HCT-15 = test system: HCT-15
SK-MEL-28 = test system: SK-MEL-28
EKVX = test system: EKVX
NCI/ADR-RES = test system: NCI/ADR-RES
RPMI-8226 = test system: RPMI-8226
SK-MEL-5 = test system: SK-MEL-5
UACC-257 = test system: UACC-257
A549 = test system: A549
IGROV-1 = test system: IGROV-1
LOX IMVI = test system: LOX IMVI
MDA-MB-231 = test system: MDA-MB-231
NCI-H522 = test system: NCI-H522
ACHN = test system: ACHN
TK-10 = test system: TK-10
MCF7 = test system: MCF7
SNB-19 = test system: SNB-19
OVCAR-5 = test system: OVCAR-5
COLO 205 = test system: COLO 205
CAKI-1 = test system: CAKI-1
CCRF-CEM = test system: CCRF-CEM
U-251 = test system: U-251
SF-539 = test system: SF-539
Hs-578T = test system: Hs-578T
MDA-MB-435 = test system: MDA-MB-435
BT-549 = test system: BT-549
M14 = test system: M14
KM12 = test system: KM12
DU-145 = test system: DU-145
RXF 393 = test system: RXF 393
SNB-75 = test system: SNB-75
SK-OV-3 = test system: SK-OV-3
MOLT-4 = test system: MOLT-4
NCI-H460 = test system: NCI-H460
HCC 2998 = test system: HCC 2998
SF-268 = test system: SF-268
Malme-3M = test system: Malme-3M
T47D = test system: T47D
UO-31 = test system: UO-31
OVCAR-3 = test system: OVCAR-3
OVCAR-8 = test system: OVCAR-8
MDA-N = test system: MDA-N
786-0 = test system: 786-0
SN12C = test system: SN12C
SF-295 = test system: SF-295
NCI-H23 = test system: NCI-H23
SK-MEL-2 = test system: SK-MEL-2
OVCAR-4 = test system: OVCAR-4
UACC-62 = test system: UACC-62
A498 = test system: A498
HOP-62 = test system: HOP-62
HCT-116 = test system: HCT-116
PC-3 = test system: PC-3
HT-29 = test system: HT-29
SW-620 = test system: SW-620
HOP-92 = test system: HOP-92
K562 = test system: K562
SR = test system: SR
NCI-H226 = test system: NCI-H226
HL-60 = test system: HL-60

Compound: CC12NC(=C(C#N)C#N)C(C#N)=C3NC(N)=C(C#N)C(=C31)Oc1ccccc12 (stereo not drawn)
- GI50 (HCT-15): 28.8 µM
- GI50 (SK-MEL-28): > 66.7 µM (inactive)
- GI50 (EKVX): > 66.5 µM (inactive)
- GI50 (NCI/ADR-RES): > 100 µM (inactive)
- GI50 (RPMI-8226): > 32.7 µM (inactive)
- GI50 (SK-MEL-5): 5.05 µM (inactive)
- GI50 (UACC-257): > 100 µM (inactive)
- GI50 (A549): 17 µM (inactive)
- GI50 (IGROV-1): 4.01 µM (inactive)
- GI50 (LOX IMVI): 5.83 µM (inactive)
- GI50 (MDA-MB-231): > 30.1 µM (inactive)
- GI50 (NCI-H522): 56.2 µM (inactive)
- GI50 (ACHN): > 25 µM (inactive)
- GI50 (TK-10): > 31 µM (inactive)
- GI50 (MCF7): > 35.6 µM (inactive)
- GI50 (SNB-19): > 40.7 µM (inactive)
- GI50 (OVCAR-5): 47.8 µM (inactive)
- GI50 (COLO 205): 4.71 µM (inactive)
- GI50 (CAKI-1): > 29.4 µM (inactive)
- GI50 (CCRF-CEM): > 29 µM (inactive)
- GI50 (U-251): 18.1 µM (inactive)
- GI50 (SF-539): 4.32 µM (inactive)
- GI50 (Hs-578T): 6.46 µM (inactive)
- GI50 (MDA-MB-435): > 30.1 µM (inactive)
- GI50 (BT-549): > 24.8 µM (inactive)
- GI50 (M14): > 44.4 µM (inactive)
- GI50 (KM12): 3.77 µM (inactive)
- GI50 (DU-145): 10.1 µM (inactive)
- GI50 (RXF 393): 2.53 µM (inactive)
- GI50 (SNB-75): > 57.1 µM (inactive)
- GI50 (SK-OV-3): 75 µM (inactive)
- GI50 (MOLT-4): 15.2 µM (inactive)
- GI50 (NCI-H460): 31 µM (inactive)
- GI50 (HCC 2998): 27.4 µM (inactive)
- GI50 (SF-268): 10.4 µM (inactive)
- GI50 (Malme-3M): 20.6 µM (inactive)
- GI50 (T47D): > 79.1 µM (inactive)
- GI50 (UO-31): > 100 µM (inactive)
- GI50 (OVCAR-3): 4.2 µM (inactive)
- GI50 (OVCAR-8): 10.9 µM (inactive)
- GI50 (MDA-N): 14.6 µM (inactive)
- GI50 (786-0): 18.5 µM (inactive)
- GI50 (SN12C): > 30.7 µM (inactive)
- GI50 (SF-295): 20 µM (inactive)
- GI50 (NCI-H23): 6.85 µM (inactive)
- GI50 (SK-MEL-2): 6.7 µM (inactive)
- GI50 (OVCAR-4): 62.1 µM (inactive)
- GI50 (UACC-62): 15 µM (inactive)
- GI50 (A498): > 30.9 µM (inactive)
- GI50 (HOP-62): 5.04 µM (inactive)
- GI50 (HCT-116): 4.53 µM (inactive)
- GI50 (PC-3): 30.1 µM (inactive)
- GI50 (HT-29): 7.06 µM (inactive)
- GI50 (SW-620): > 26.6 µM (inactive)
- GI50 (HOP-92): > 21.5 µM (inactive)
- GI50 (K562): > 43.2 µM (inactive)
- GI50 (SR): 2.59 µM (inactive)
- GI50 (NCI-H226): 43.6 µM (inactive)
- GI50 (HL-60): 5.74 µM (inactive)

Compound: COc1ccc(O)c(/C=N/NC(=S)N2CCCCC2)c1
- GI50 (HCT-15): 0.611 µM
- GI50 (SK-MEL-28): 3.17 µM (inactive)
- GI50 (EKVX): 4.38 µM (inactive)
- GI50 (NCI/ADR-RES): 1.77 µM (inactive)
- GI50 (RPMI-8226): 1.05 µM (active)
- GI50 (SK-MEL-5): 2.02 µM (inactive)
- GI50 (UACC-257): 6.04 µM (inactive)
- GI50 (A549): 1.81 µM (inactive)
- GI50 (IGROV-1): 2.78 µM (inactive)
- GI50 (LOX IMVI): 0.767 µM (active)
- GI50 (MDA-MB-231): 9.23 µM (inactive)
- GI50 (NCI-H522): 0.948 µM (active)
- GI50 (ACHN): 0.906 µM (active)
- GI50 (TK-10): 3.61 µM (inactive)
- GI50 (MCF7): 7.96 µM (inactive)
- GI50 (SNB-19): 4.51 µM (inactive)
- GI50 (OVCAR-5): 5.9 µM (inactive)
- GI50 (COLO 205): 2.98 µM (inactive)
- GI50 (CAKI-1): 2.72 µM (inactive)
- GI50 (CCRF-CEM): 0.569 µM (active)
- GI50 (U-251): 1.85 µM (inactive)
- GI50 (SF-539): 3.77 µM (inactive)
- GI50 (Hs-578T): 31 µM (inactive)
- GI50 (MDA-MB-435): 6.07 µM (inactive)
- GI50 (BT-549): 3.77 µM (inactive)
- GI50 (M14): 0.592 µM (active)
- GI50 (KM12): 4.38 µM (inactive)
- GI50 (DU-145): 1.74 µM (inactive)
- GI50 (RXF 393): 7.73 µM (inactive)
- GI50 (SNB-75): 10.5 µM (inactive)
- GI50 (SK-OV-3): 2.16 µM (inactive)
- GI50 (MOLT-4): 1.3 µM (inactive)
- GI50 (NCI-H460): 1.22 µM (inactive)
- GI50 (HCC 2998): 1.87 µM (inactive)
- GI50 (SF-268): 0.948 µM (active)
- GI50 (Malme-3M): 1.71 µM (inactive)
- GI50 (T47D): 6.71 µM (inactive)
- GI50 (UO-31): 0.746 µM (active)
- GI50 (OVCAR-3): 0.319 µM (active)
- GI50 (OVCAR-8): 1.86 µM (inactive)
- GI50 (MDA-N): 7.8 µM (inactive)
- GI50 (786-0): 1.15 µM (inactive)
- GI50 (SN12C): 4.92 µM (inactive)
- GI50 (SF-295): 3.33 µM (inactive)
- GI50 (NCI-H23): 2.15 µM (inactive)
- GI50 (SK-MEL-2): 25.1 µM (inactive)
- GI50 (OVCAR-4): 4.59 µM (inactive)
- GI50 (UACC-62): 2.54 µM (inactive)
- GI50 (A498): 12.1 µM (inactive)
- GI50 (HOP-62): 1.35 µM (inactive)
- GI50 (HCT-116): 2.3 µM (inactive)
- GI50 (PC-3): 5 µM (inactive)
- GI50 (HT-29): 8.17 µM (inactive)
- GI50 (SW-620): 2.88 µM (inactive)
- GI50 (HOP-92): 5.18 µM (inactive)
- GI50 (K562): 3.05 µM (inactive)
- GI50 (SR): 0.425 µM (active)
- GI50 (NCI-H226): 1.07 µM (active)
- GI50 (HL-60): 0.131 µM (active)
